From patent publication US9879043B1, “Synthesis of non-natural cofactor analogs of S-adenosyl-L-methionine using methionine adenosyltransferase” (University of Kentucky Research Foundation, priority 2013, dated 2018)

Legend:
Format in all cases: biochemical
[1] = target: T1, Sulfolobus solfataricus MAT (sMAT) (Saccharolobus solfataricus, UniProt Q980S9); details: ADP in place of ATP, 65° C. for 4 hr, standard assay conditions
T1 sequence (Q980S9 1-404): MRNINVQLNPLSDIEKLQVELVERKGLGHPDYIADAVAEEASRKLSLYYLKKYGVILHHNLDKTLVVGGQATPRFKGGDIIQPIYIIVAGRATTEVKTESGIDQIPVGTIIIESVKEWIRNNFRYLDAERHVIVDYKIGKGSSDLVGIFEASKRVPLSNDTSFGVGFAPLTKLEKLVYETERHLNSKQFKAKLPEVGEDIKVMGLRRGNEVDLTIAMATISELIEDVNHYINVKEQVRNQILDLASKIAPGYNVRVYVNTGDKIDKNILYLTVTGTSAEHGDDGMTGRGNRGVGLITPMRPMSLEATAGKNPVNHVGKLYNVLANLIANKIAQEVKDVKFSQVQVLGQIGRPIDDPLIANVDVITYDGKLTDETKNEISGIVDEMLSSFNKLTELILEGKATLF

[2] = target: Escherichia coli MAT (eMAT) (Escherichia coli, UniProt P0A817); test: MAT assay, turnover of S/Se-Met analogs to S(Se)AM analogs (RP-HPLC end point); details: 2 mM Met analog, 1 mM ATP, 5 μM MAT, pH 8, 4 h, 37° C.; average of two assays
Procedure: (§1) Standard uniform assay conditions (2 mM Met analog, 1 mM ATP, 5 μM MAT, 25 mM Tris, 5 mM MgCl2, 50 mM KCl, pH 8, 4 h) were adopted to facilitate this broad assessment. For the thermophilic counterpart (mMAT), reactions were conducted at 65° C., while all other reactions were incubated at 37° C. Production of SAM analogs was determined by an RP-HPLC end point assay to afford complete analysis of the desired SAM analog and/or any corresponding degradation products known to directly derive from the desired SAM analog intermediate. Putative SAM analog and SAM-derived degradative product formation was subsequently confirmed via high-resolution mass spectrometry (HRMS) analysis for all positive reactions (see Table 2).
(§2) To monitor MAT reactions, analytical RP HPLC employed a Luna C18 column (5 μm, 4.6 mm×250 mm; Phenomenex, Torrance, Calif., USA) [gradient of 10% B to 40% B over 15 min, 40% B to 75% B over 5 min (A=10 mM NaH2PO4, 5 mM octane sulfonic acid, pH was adjusted to 3.5 using phosphoric acid; B=acetonitrile) flow rate=1 mL min^−1; A254].
(§3) In vitro MAT reactions were conducted in a volume of 50 μl with 2 mM S/Se-alkylated analog (compounds 2-30), 1 mM ATP and 5 μM purified MAT in 25 mM Tris buffer pH 8.0, 5 mM MgCl2, 50 mM KCl for 4 h. The sMAT and mMAT reactions were conducted at 65° C. while hMATs and eMAT were incubated at 37° C. Reactions were quenched by adding an equal volume of methanol followed by centrifugation (10,000×g for 15 min) to remove the precipitated protein and product formation for each reaction was subsequently analyzed by RP-HPLC using Method D (FIG. 15, first column). For each reaction, percent yield was based upon the integration of species at 254 nm and calculated by dividing the integrated area of product and/or decomposed product by the sum of integrated area of product and/or decomposed product and the remaining substrate. The assays were repeated twice under identical conditions, and Table 2 (and FIG. 5) represents an average value of two assays. The inclusion of adenine and 5′-R-thio-5′-adenosine in these calculations is based upon the established SAM and ATP chemical decomposition pathways which indicate adenine and 5′-R-thio-5′-adenosine to only derive from SAM (not ATP). All putative products were subsequently confirmed by high resolution electrospray ionization (ESI) mass spectra with positive (+) and/or negative (−) mode.

[3] = target: human MAT I catalytic subunit alpha (hMAT1A) (Homo sapiens, UniProt Q00266); test: as above; details: 2 mM Met analog, 1 mM ATP, 5 μM MAT, pH 8, 4 h, 37° C.; average of two assays
Procedure: as §1, with “intermediate.” for “intermediate. Putative SAM analog and SAM-derived degradative product formation was subsequently confirmed via high-resolution mass spectrometry (HRMS) analysis for all positive reactions (see Table 2).”
as §2
as §3, with “The” for “In vitro MAT reactions were conducted in a volume of 50 μl with 2 mM S/Se-alkylated analog (compounds 2-30), 1 mM ATP and 5 μM purified MAT in 25 mM Tris buffer pH 8.0, 5 mM MgCl2, 50 mM KCl for 4 h. The”

[4] = target: human MAT II catalytic alpha and regulatory beta subunit (hMAT2) (Homo sapiens, UniProt P31153); test: as above; details: 2 mM Met analog, 1 mM ATP, 5 μM MAT, pH 8, 4 h, 37° C.; average of two assays
Procedure: as §1, with “intermediate.” for “intermediate. Putative SAM analog and SAM-derived degradative product formation was subsequently confirmed via high-resolution mass spectrometry (HRMS) analysis for all positive reactions (see Table 2).”
as §2
as §3, with “The” for “In vitro MAT reactions were conducted in a volume of 50 μl with 2 mM S/Se-alkylated analog (compounds 2-30), 1 mM ATP and 5 μM purified MAT in 25 mM Tris buffer pH 8.0, 5 mM MgCl2, 50 mM KCl for 4 h. The”

[5] = target: human MAT II catalytic alpha subunit alone (hMAT2A) (Homo sapiens, UniProt P31153); test: as above; details: 2 mM Met analog, 1 mM ATP, 5 μM MAT, pH 8, 4 h, 37° C.; average of two assays
Procedure: as §1, with “intermediate.” for “intermediate. Putative SAM analog and SAM-derived degradative product formation was subsequently confirmed via high-resolution mass spectrometry (HRMS) analysis for all positive reactions (see Table 2).”
as §2
as §3, with “The” for “In vitro MAT reactions were conducted in a volume of 50 μl with 2 mM S/Se-alkylated analog (compounds 2-30), 1 mM ATP and 5 μM purified MAT in 25 mM Tris buffer pH 8.0, 5 mM MgCl2, 50 mM KCl for 4 h. The”

[6] = target: T2, Methanocaldococcus jannaschii MAT (mMAT) (Methanocaldococcus jannaschii, UniProt Q58605); details: 2 mM Met analog, 1 mM ATP, 5 μM MAT, pH 8, 4 h, 65° C.; average of two assays
T2 sequence (Q58605 1-406): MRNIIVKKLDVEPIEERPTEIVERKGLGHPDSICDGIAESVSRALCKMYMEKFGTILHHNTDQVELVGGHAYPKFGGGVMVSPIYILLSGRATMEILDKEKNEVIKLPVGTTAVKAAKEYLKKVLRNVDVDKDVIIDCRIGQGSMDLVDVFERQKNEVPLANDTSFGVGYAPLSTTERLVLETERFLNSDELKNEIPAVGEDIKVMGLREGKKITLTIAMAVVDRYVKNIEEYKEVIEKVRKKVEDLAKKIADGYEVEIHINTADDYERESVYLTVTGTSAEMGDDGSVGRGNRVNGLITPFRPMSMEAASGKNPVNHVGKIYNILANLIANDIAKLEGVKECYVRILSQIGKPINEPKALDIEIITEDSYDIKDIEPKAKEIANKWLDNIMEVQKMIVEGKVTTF
Procedure: as §1, with “intermediate.” for “intermediate. Putative SAM analog and SAM-derived degradative product formation was subsequently confirmed via high-resolution mass spectrometry (HRMS) analysis for all positive reactions (see Table 2).”
as §2
as §3, with “The” for “In vitro MAT reactions were conducted in a volume of 50 μl with 2 mM S/Se-alkylated analog (compounds 2-30), 1 mM ATP and 5 μM purified MAT in 25 mM Tris buffer pH 8.0, 5 mM MgCl2, 50 mM KCl for 4 h. The”

[7] = target: T1, Sulfolobus solfataricus MAT (sMAT); details: 2 mM analog, 1 mM ATP, 5 μM sMAT, pH 8.0, 4 h at 65° C.; average of two assays
Procedure: In-vitro sMAT assay: In vitro sMAT reactions were conducted in a volume of 50 μl with 2 mM S/Se-alkylated analog, 1 mM ATP and 5 μM purified sMAT in 25 mM Tris buffer pH 8.0, 5 mM MgCl2, 50 mM KCl for 4 h at 65° C. Reactions were quenched by adding an equal volume of methanol followed by centrifugation (10,000×g for 15 min) to remove the precipitated protein and product formation for each reaction was subsequently analyzed by reverse phase HPLC (RP-HPLC) using method described below. For each reaction, percent yield was based upon the integration of species at 254 nm and calculated by dividing the integrated area of product and/or decomposed product by the sum of integrated area of product and/or decomposed product and the remaining substrate. The assays were repeated twice under identical conditions, and Table 4 (and FIG. 17) represents an average value of two assays. The inclusion of adenine and 5′-R-thio-5′-adenosine in these calculations is based upon the established SAM and ATP chemical decomposition pathways which indicate adenine and 5′-R-thio-5′-adenosine to only derive from SAM (not ATP). All putative products were subsequently confirmed by high resolution electrospray ionization (ESI) mass spectra with positive (+) and/or negative (−) mode.
RP-HPLC method: Reactions were quenched by the addition of equal volume of methanol followed by centrifugation at 10,000 g for 15 min to remove precipitated protein before applying on an analytical Varian ProStar HPLC [Luna C18 column, 5 μm, 4.6 mm×250 mm; Phenomenex, Torrance, Calif., USA; gradient of 10% B to 40% B over 15 min, 40% B to 75% B over 5 min (A=10 mM NaH2PO4, 5 mM octane sulfonic acid, pH was adjusted to 3.5 using phosphoric acid; B=acetonitrile) flow rate=1 mL min^−1; A254].

Compound: Nc1ncnc2c1ncn2[C@@H]1O[C@H](COP(=O)(O)OP(=O)(O)O)[C@@H](O)[C@H]1O [ADP]
- product formation from ADP and methionine [1]: no detectable product

Compound: C=C(C)CSCC[C@H](N)C(=O)O [compound 12, (2S)-2-amino-4-[(2-methylprop-2-en-1-yl)sulfanyl]butanoic acid]
- Percentage Turn-over eMAT [2]: 0%
- Percentage Turn-over hMAT1A [3]: 0%
- Percentage Turn-over hMAT2 [4]: 2%
- Percentage Turn-over hMAT2A [5]: 2%
- Percentage Turn-over mMAT [6]: 6%
- Percentage Turn-Over (sMAT) [7]: 15%
